This is an account of results in patent US10822337B2, “TGF-β inhibitorC” (Rigel Pharmaceuticals, Inc., priority 2015, dated 2020).

The subject of test [1] is TGF-β signaling (TGF-β pSMAD, MPC-11). The test can be described thus: AlphaScreen SureFire SMAD3 (p-Ser423/425) assay, inhibition of TGF-β signaling. It is filed as cell-based. Particulars: Mus musculus, p-SMAD-3 (Ser423/425) in cell lysate after TGF-β stimulation. From the text:
(§1) Example 2: AlphaScreen® SureFire® SMAD3 (p-Ser423/425) Assay
(§2) The p-SMAD-3 (Ser423/425) SureFire® assay has been designed to measure the phosphorylation of endogenous cellular p-SMAD-3 (Ser423/425) in cell lysates and is a system for the screening of both modulators of receptor activation (e.g. agonists and antagonists) as well as agents acting intracellularly, such as small molecule inhibitors of upstream events. The assay will measure p-SMAD-3 (Ser423/425) activation by either cloned or endogenous receptors, and can be applied to primary cells.
(§3) 1× Lysis buffer: 1 ml of 5× Lysis buffer was diluted with 4 ml of sterile water. After dilution, excess 1× Lysis buffer can be frozen and thawed up to 5 times without loss in activity.
(§4) P-SMAD-3 (Ser423/425) SureFire® Assay Protocols
(§5) Step A: Preparation of Buffers
(§6) Activation buffer: The buffer was warmed slowly to 37° C. and gently mixed to re-suspend. Activation buffer can be stored at room temperature with no loss in activity.
(§7) Reaction buffer: The buffer was kept at 4° C. while in use.
(§8) AlphaScreen® Protein A IgG Kit: The kit was stored at 4° C. in the dark.
(§9) Reaction buffer+Activation buffer+AlphaScreen® Acceptor beads: Reaction buffer (40 parts), Activation Buffer (10 parts) and Acceptor beads (1 part) were mixed and the mixture was stored at room temperature and used the same day. Mixture was added to 384-well plates; excess mixturewas discarded.
(§10) Dilution buffer+AlphaScreen® Donor beads: Dilution buffer (20 parts) and Donor beads (1 part) were mixed and the mixture was stored at room temperature and used the same day. Excess mixture was discarded.
(§11) Assay control samples: After reconstitution in 250 μl of water, lysates were at −20° C. in single use aliquots.
(§12) Step B: Preparation of Samples and Cells
(§13) 96-well Assay Protocol for 293FT and RMS13 adherent cells can be carried out manually or in high throughput with liquid handling robots.
(§14) The cells (80 μL of cells for 96 well plates) were plated in collagen coated tissue culture plates in RPMI or FreeStyle medium (Invitrogen) and incubated overnight. For manual analysis, 6 plates for GDF8, 6 plates for TGFβ, and optionally 6 plates for Alk5ca(ALKS constitutively active) were used.
(§15) The compound dilution plates were prepared as follows: 12 μL of DMSO was transferred into first column of 96-well plate, and 16 μL of DMSO was transferred into columns 2-12 of the 96-well plate. 12 μL of compound solution was transferred into first column of the DMSO-containing 96-well plate. Three-fold dilution was performed up to column 10 of the DMSO-containing 96-well plate.
(§16) Step C: Treatment and Analysis
(§17) The plate containing cells were treated with compounds for about 10 minutes, and then ligand was added. GDF8 or TGFb was added to plates to stimulate. 293FL cells were stimulatedfor 90 minutes at 37° C.; and RMS13 cells were stimulated for 60 minutes at 37° C. The medium was then removed from the cells, and 1× Lysis Buffer (about 25 μL) was added and the plate was gently agitated on plate shaker for 5-10 minutes.
(§18) The lysate (5 μL) was then placed into 384-well shallow plates avoiding the generation of bubbles. To this, the Reaction Buffer+Activation Buffer+AlphaScreen® Acceptor beadsmixture (5 μL) was added. The plate was sealed with adhesive cover and shielded from light (e.g., with metal foil), and agitated gently on plate shaker for 2 hours at room temperature.
(§19) Dilution buffer+AlphaScreen® Donor beads (2 μL) was then added, and the plate was intubated on the plate shaker for an additional 1½ hours. After completion, the plate was read on Synergy-4 or Enspire plate reader, using AlphaScreen® pSMAD3® settings.
(§20) Representative results for inhibition of GDF8 (data=GDF pSMAD (MPC11) (μM)) and TGF-β (data=TGF-β pSMAD (MPC-11) (μM)) signaling are shown in Table 1: […]
(Bead proximity is the source of the signal in Alpha formats.)

For test [2], the system named is GDF8 signaling (GDF pSMAD, MPC11). As to the kind of experiment: AlphaScreen SureFire SMAD3 (p-Ser423/425) assay, inhibition of GDF8 signaling. The test is classed as cell-based. As to conditions: Mus musculus, MPC-11, p-SMAD-3 (Ser423/425) in cell lysate after GDF8 stimulation.
Description: as §1, §2, §3, §4, §5, §6, §7, §8, §9, §10, §11, §12, §13, §14, §15, §16, §17, §18, §19, §20

Regarding `Cc1cc(-c2nn3c(c2-c2ccc4nccnc4c2)CCC3)ccc1F` [Compound 55, 6-(2-(4-Fluoro-3-methylphenyl)-5,6-dihydro-4H-pyrrolo[1,2-b]pyrazol-3-yl)quinoxaline], the results for the IC50 in test [1] and in test [2] were 525 nM and 173 nM, respectively.

`COc1cccc(-c2nn3c(c2-c2ccc4nccnc4c2)CCC3)c1` [Compound 56, 6-(2-(3-Methoxyphenyl)-5,6-dihydro-4H-pyrrolo[1,2-b]pyrazol-3-yl)quinoxaline]: the values for the IC50 in test [1] and in test [2] were 866 nM and 372 nM, respectively.

In the case of `Clc1cccc(-c2nn3c(c2-c2ccc4nccnc4c2)CCC3)c1` [Compound 57, 6-(2-(3-Chlorophenyl)-5,6-dihydro-4H-pyrrolo[1,2-b]pyrazol-3-yl)quinoxaline], the IC50 in test [1] amounted to 398 nM; in test [2] it was 72.4 nM.

In the case of `FC(F)(F)c1cccc(-c2nn3c(c2-c2ccc4nccnc4c2)CCC3)c1` [Compound 58, 6-(2-(3-Trifluoromethylphenyl)-5,6-dihydro-4H-pyrrolo[1,2-b]pyrazol-3-yl)quinoxaline], the IC50 amounted to 863 nM in test [1] and 309 nM in test [2].

As for `FC(F)(F)c1cccc(-c2nn3c(c2-c2ccc4[nH]ncc4c2)OCC3)c1` [Compound 59, 7-(1H-Indazol-5-yl)-6-(3-trifluoromethylphenyl)-2,3-dihydropyrazolo[5,1-b]oxazole], the results for the half-inhibitory concentration (IC50) in test [1] and in test [2] were 701 nM and 217 nM, respectively.

Consider `Cn1cnc2ccc(-c3c(-c4cccc(C(F)(F)F)c4)nn4c3OCC4)cc21` [Compound 60, 7-(1-Methyl-1H-benzo[d]imidazol-6-yl)-6-(3-trifluoromethylphenyl)-1,2-dihydropyrazolo[5,1-b]oxazole], for which the IC50 in test [1] amounted to 214 nM; in test [2], 68.6 nM.

With `FC(F)(F)c1cccc(-c2nn3c(c2-c2ccc4nccn4c2)OCC3)c1` [Compound 61, 7-(Imidazo[1,2-a]pyridin-6-yl)-6-(3-trifluoromethylphenyl)-2,3-dihydropyrazolo[5,1-b]oxazole], the results for the IC50 in test [1] and in test [2] were 456 nM and 130 nM, respectively.

With `FC(F)(F)c1cccc(-c2nn3c(c2-c2ccc4ncsc4c2)OCC3)c1` [Compound 62, 7-(Benzo[d]thiazol-6-yl)-6-(3-trifluoromethylphenyl)-2,3-dihydropyrazolo[5,1-b]oxazole], the results for the IC50 in test [1] and in test [2] were 787 nM and 272 nM, respectively.

Regarding `FC(F)(F)c1cccc(-c2nn3c(c2-c2ccc4ncccc4c2)OCC3)c1` [Compound 63, 7-(Quinolin-6-yl)-6-(3-trifluoromethylphenyl)-2,3-dihydropyrazolo[5,1-b]oxazole], the IC50 came out at 6030 nM in test [1] and 1990 nM in test [2].

On to `FC(F)(F)c1cccc(-c2nn3c(c2-c2ccc4nccnc4c2)OCC3)c1` [Compound 64, 7-(Quinoxalin-6-yl)-6-(3-trifluoromethylphenyl)-2,3-dihydropyrazolo[5,1-b]oxazole], for which the IC50 is 1480 nM in test [1] and 337 nM in test [2].

For the molecule `Fc1ccc(-c2nn3c(c2-c2ccc4cn[nH]c4c2)OCC3)cc1` [Compound 65, 6-(4-Fluorophenyl)-7-(1H-indazol-6-yl)-2,3-dihydropyrazolo[5,1-b]oxazole], the results for the IC50 in test [1] and in test [2] were 881 nM and 143 nM, respectively.

Consider `Fc1ccc(-c2nn3c(c2-c2ccc4nccn4c2)OCC3)cc1` [Compound 67, 6-(4-Fluorophenyl)-7-(imidazo[1,2-a]pyridin-6-yl)-2,3-dihydropyrazolo[5,1-b]oxazole], for which the results for the IC50 in test [1] and in test [2] were 2640 nM and 331 nM, respectively.

With `Fc1ccc(-c2nn3c(c2-c2ccc4ncsc4c2)OCC3)cc1` [Compound 68, 7-(Benzo[d]thiazol-6-yl)-6-(4-fluorophenyl)-2,3-dihydropyrazolo[5,1-b]oxazole], the IC50 stood at 1100 nM in test [1] and 332 nM in test [2].

As to `Fc1ccc(-c2nn3c(c2-c2ccc4ncccc4c2)OCC3)cc1` [Compound 69, 6-(4-Fluorophenyl)-7-(quinolin-6-yl)-2,3-dihydropyrazolo[5,1-b]oxazole], the IC50 in test [1] worked out at 7810 nM; in test [2] it was 1260 nM.

For the molecule `Fc1ccc(-c2nn3c(c2-c2ccc4nccnc4c2)OCC3)cc1` [Compound 70, 6-(4-Fluorophenyl)-7-(quinoxalin-6-yl)-2,3-dihydropyrazolo[5,1-b]oxazole], the half-inhibitory concentration (IC50) was 1370 nM in test [1] and 399 nM in test [2].

`FC(F)(F)c1cccc(-c2nn3c(c2-c2ccc4cn[nH]c4c2)OCC3)c1` [Compound 71, 7-(1H-Indazol-6-yl)-6-(3-trifluoromethylphenyl)-2,3-dihydropyrazolo[5,1-b]oxazole]: the IC50 stood at 852 nM in test [1] and 179 nM in test [2].

On to `COc1cccc(-c2nn3c(c2-c2ccc4ncn(C)c4c2)OCC3)c1` [Compound 72, 6-(3-Methoxyphenyl)-7-(1-methyl-1H-benzo[d]imidazol-6-yl)-2,3-dihydropyrazolo[5,1-b]oxazole], for which the IC50 in test [1] was found to be 664 nM; in test [2] it was 233 nM.

Regarding `COc1cccc(-c2nn3c(c2-c2ccc4nccn4c2)OCC3)c1` [Compound 73, 7-(Imidazo[1,2-a]pyridin-6-yl)-6-(3-methoxyphenyl)-2,3-dihydropyrazolo[5,1-b]oxazole], the IC50 in test [1] came out at 1490 nM; in test [2] it was 329 nM.

`COc1cccc(-c2nn3c(c2-c2ccc4ncsc4c2)OCC3)c1` [Compound 74, 7-(Benzo[d]thiazol-6-yl)-6-(3-methoxyphenyl)-2,3-dihydropyrazolo[5,1-b]oxazole]: the results for the IC50 in test [1] and in test [2] were 1040 nM and 243 nM, respectively.

Regarding `COc1cccc(-c2nn3c(c2-c2ccc4ncccc4c2)OCC3)c1` [Compound 75, 6-(3-Methoxyphenyl)-7-(quinolin-6-yl)-2,3-dihydropyrazolo[5,1-b]oxazole], the IC50 in test [1] worked out at 7240 nM; in test [2], 1240 nM.

As to `COc1cccc(-c2nn3c(c2-c2ccc4nccnc4c2)OCC3)c1` [Compound 76, 6-(3-Methoxyphenyl)-7-(quinoxalin-6-yl)-2,3-dihydropyrazolo[5,1-b]oxazole], the IC50 was determined as 649 nM in test [1] and 180 nM in test [2].

As for `Fc1cccc(-c2nn3c(c2-c2ccc4[nH]ncc4c2)CCC3)c1` [Compound 77, 5-(2-(3-Fluorophenyl)-5,6-dihydro-4H-pyrrolo[1,2-b]pyrazol-3-yl)-1H-indazole], the values for the IC50 in test [1] and in test [2] were 1340 nM and 336 nM, respectively.

Turning to `Fc1cccc(-c2nn3c(c2-c2ccc4cn[nH]c4c2)CCC3)c1` [Compound 78, 6-(2-(3-Fluorophenyl)-5,6-dihydro-4H-pyrrolo[1,2-b]pyrazol-3-yl)-1H-indazole], the half-maximal inhibitory concentration (IC50) was 2300 nM in test [1] and 812 nM in test [2].

Turning to `Cn1cnc2ccc(-c3c(-c4cccc(F)c4)nn4c3CCC4)cc21` [Compound 79, 6-(2-(3-Fluorophenyl)-5,6-dihydro-4H-pyrrolo[1,2-b]pyrazol-3-yl)-1-methyl-1H-benzo[d]imidazole], the IC50 in test [1] was 417 nM; in test [2] it was 196 nM.

`Fc1cccc(-c2nn3c(c2-c2ccc4nccn4c2)CCC3)c1` [Compound 80, 6-(2-(3-Fluorophenyl)-5,6-dihydro-4H-pyrrolo[1,2-b]pyrazol-3-yl)imidazo[1,2-a]pyridine]: the half-maximal inhibitory concentration (IC50) in test [1] came out at 2980 nM; in test [2], 760 nM.

Take `Fc1cccc(-c2nn3c(c2-c2ccc4ncsc4c2)CCC3)c1` [Compound 81, 6-(2-(3-Fluorophenyl)-5,6-dihydro-4H-pyrrolo[1,2-b]pyrazol-3-yl)benzo[d]thiazole]: the IC50 was found to be 1870 nM in test [1] and 375 nM in test [2].

A word on the IC50: it is the concentration that inhibits the measured activity by half.
